Source: PubChem BioAssay (NCI)
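The compound was tested at five concentrations on cells cultured in 96-well plates, with a 48-hour exposure period. TGI: total growth inhibition.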

Experiments:
Assay in all cases: growth of human tumour cells (NCI), 48 h
786-0 renal = tested on: 786-0 renal
A498 renal = tested on: A498 renal
A549 NSCLC = tested on: A549 NSCLC
ACHN renal = tested on: ACHN renal
BT-549 breast = tested on: BT-549 breast
CAKI-1 renal = tested on: CAKI-1 renal
CCRF-CEM leukemia = tested on: CCRF-CEM leukemia
COLO 205 colon = tested on: COLO 205 colon
DU-145 prostate = tested on: DU-145 prostate
HCT-116 colon = tested on: HCT-116 colon
HCT-15 colon = tested on: HCT-15 colon
HL-60(TB) leukemia = tested on: HL-60(TB) leukemia
HOP-62 NSCLC = tested on: HOP-62 NSCLC
HOP-92 NSCLC = tested on: HOP-92 NSCLC
HS 578T breast = tested on: HS 578T breast
HT29 colon = tested on: HT29 colon
IGROV1 ovarian = tested on: IGROV1 ovarian
K-562 leukemia = tested on: K-562 leukemia
KM12 colon = tested on: KM12 colon
LOX IMVI melanoma = tested on: LOX IMVI melanoma
M14 melanoma = tested on: M14 melanoma
MALME-3M melanoma = tested on: MALME-3M melanoma
MCF7 breast = tested on: MCF7 breast
MDA-MB-231 breast = tested on: MDA-MB-231 breast
MDA-MB-435 = tested on: MDA-MB-435
MDA-N = tested on: MDA-N
MOLT-4 leukemia = tested on: MOLT-4 leukemia
NCI-H23 lung = tested on: NCI-H23 lung
NCI-H460 lung = tested on: NCI-H460 lung
NCI-H522 lung = tested on: NCI-H522 lung
NCI/ADR-RES ovarian = tested on: NCI/ADR-RES ovarian
OVCAR-3 ovarian = tested on: OVCAR-3 ovarian
OVCAR-4 ovarian = tested on: OVCAR-4 ovarian
OVCAR-5 ovarian = tested on: OVCAR-5 ovarian
OVCAR-8 ovarian = tested on: OVCAR-8 ovarian
RPMI-8226 leukemia = tested on: RPMI-8226 leukemia
RXF 393 renal = tested on: RXF 393 renal
SF-268 CNS = tested on: SF-268 CNS
SF-295 CNS = tested on: SF-295 CNS
SK-MEL-2 melanoma = tested on: SK-MEL-2 melanoma
SK-MEL-28 melanoma = tested on: SK-MEL-28 melanoma
SK-MEL-5 melanoma = tested on: SK-MEL-5 melanoma
SK-OV-3 ovarian = tested on: SK-OV-3 ovarian
SN12C renal = tested on: SN12C renal
SNB-75 CNS = tested on: SNB-75 CNS
SR leukemia = tested on: SR leukemia
SW-620 colon = tested on: SW-620 colon
T-47D breast = tested on: T-47D breast
U251 CNS = tested on: U251 CNS
UACC-257 melanoma = tested on: UACC-257 melanoma
UACC-62 melanoma = tested on: UACC-62 melanoma
UO-31 renal = tested on: UO-31 renal
EKVX NSCLC = tested on: EKVX NSCLC
HCC-2998 colon = tested on: HCC-2998 colon
NCI-H226 lung = tested on: NCI-H226 lung
PC-3 prostate = tested on: PC-3 prostate
SF-539 CNS = tested on: SF-539 CNS
SNB-19 CNS = tested on: SNB-19 CNS
TK-10 renal = tested on: TK-10 renal

Measured: TGI

COC(=O)C[C@H]1[C@]2(C)C3=C(C)[C@H](c4ccoc4)CC3O[C@@H]2[C@@H]2OC(=O)[C@]3(C)CCC(=O)[C@@]1(C)[C@@H]23 (stereo not given in full)
59.6 µM: SR leukemia
50.1 µM: RPMI-8226 leukemia
> 100 µM: 786-0 renal | A498 renal | A549 NSCLC | ACHN renal | BT-549 breast | CAKI-1 renal | COLO 205 colon | DU-145 prostate | HCT-116 colon | HCT-15 colon | HOP-62 NSCLC | HOP-92 NSCLC | HS 578T breast | HT29 colon | IGROV1 ovarian | K-562 leukemia | KM12 colon | LOX IMVI melanoma | M14 melanoma | MALME-3M melanoma | MCF7 breast | MDA-MB-231 breast | MDA-MB-435 | MDA-N | NCI-H23 lung | NCI-H460 lung | NCI/ADR-RES ovarian | OVCAR-3 ovarian | OVCAR-4 ovarian | OVCAR-8 ovarian | RXF 393 renal | SF-268 CNS | SF-295 CNS | SK-MEL-2 melanoma | SK-MEL-28 melanoma | SK-MEL-5 melanoma | SK-OV-3 ovarian | SN12C renal | SNB-75 CNS | SW-620 colon | T-47D breast | U251 CNS | UACC-257 melanoma | UACC-62 melanoma | UO-31 renal
91.1 µM: NCI-H522 lung
45.1 µM: CCRF-CEM leukemia
46.8 µM: MOLT-4 leukemia
67.3 µM: OVCAR-5 ovarian
54.8 µM: HL-60(TB) leukemia

NC(=O)CN1CCN(c2nc(N3CCCC3)c3nc(Cl)c(NCc4ccccc4)nc3n2)CC1
20.3 µM: MOLT-4 leukemia
17.9 µM: OVCAR-5 ovarian
28.8 µM: DU-145 prostate
40.9 µM: NCI/ADR-RES ovarian
14.7 µM: HCT-116 colon
18.5 µM: SK-MEL-28 melanoma
16.3 µM: MALME-3M melanoma | OVCAR-3 ovarian | SF-295 CNS
20.5 µM: MDA-MB-435
19.5 µM: BT-549 breast
17 µM: SF-268 CNS
39.9 µM: NCI-H226 lung
17.5 µM: M14 melanoma | NCI-H460 lung | SF-539 CNS
30.3 µM: EKVX NSCLC
17.3 µM: HCT-15 colon | SK-MEL-2 melanoma
16.6 µM: MCF7 breast
16.2 µM: RXF 393 renal
19.2 µM: HL-60(TB) leukemia
4.89 µM: HOP-62 NSCLC
18 µM: 786-0 renal | HT29 colon
24.1 µM: NCI-H522 lung
35.2 µM: A549 NSCLC
15.4 µM: HCC-2998 colon
21 µM: K-562 leukemia
48.2 µM: OVCAR-4 ovarian
15.7 µM: SK-MEL-5 melanoma
> 50 µM: CAKI-1 renal | CCRF-CEM leukemia | OVCAR-8 ovarian
20.6 µM: HOP-92 NSCLC | MDA-MB-231 breast
34.7 µM: TK-10 renal
21.9 µM: UO-31 renal
19.7 µM: UACC-257 melanoma
15.8 µM: COLO 205 colon
20.4 µM: SK-OV-3 ovarian
18.9 µM: SNB-19 CNS
16.4 µM: MDA-N
31.4 µM: SW-620 colon
32.2 µM: ACHN renal
25.5 µM: IGROV1 ovarian
17.2 µM: UACC-62 melanoma
35.6 µM: NCI-H23 lung
24.2 µM: HS 578T breast
22 µM: KM12 colon
20.7 µM: T-47D breast
15.5 µM: U251 CNS
24.4 µM: SNB-75 CNS
19.8 µM: RPMI-8226 leukemia
16.5 µM: LOX IMVI melanoma
16.9 µM: SN12C renal
24.9 µM: PC-3 prostate

C=C1C[C@]23CC[C@@H]4C(CO)(CO)CC(=O)C[C@]4(C)[C@@H]2C(O)C[C@H]1C3 (stereo not given in full)
> 100 µM: 786-0 renal | A549 NSCLC | ACHN renal | BT-549 breast | CAKI-1 renal | CCRF-CEM leukemia | COLO 205 colon | DU-145 prostate | EKVX NSCLC | HCC-2998 colon | HCT-116 colon | HCT-15 colon | HL-60(TB) leukemia | HOP-62 NSCLC | HOP-92 NSCLC | HS 578T breast | HT29 colon | IGROV1 ovarian | K-562 leukemia | KM12 colon | LOX IMVI melanoma | M14 melanoma | MALME-3M melanoma | MCF7 breast | MDA-MB-231 breast | MDA-MB-435 | MDA-N | MOLT-4 leukemia | NCI-H226 lung | NCI-H23 lung | NCI-H460 lung | NCI-H522 lung | NCI/ADR-RES ovarian | OVCAR-3 ovarian | OVCAR-4 ovarian | OVCAR-5 ovarian | OVCAR-8 ovarian | PC-3 prostate | RPMI-8226 leukemia | SF-268 CNS | SF-295 CNS | SF-539 CNS | SK-MEL-2 melanoma | SK-MEL-28 melanoma | SK-OV-3 ovarian | SN12C renal | SNB-19 CNS | SNB-75 CNS | SR leukemia | SW-620 colon | TK-10 renal | U251 CNS | UACC-257 melanoma | UACC-62 melanoma | UO-31 renal

NC(=S)NS(=O)(=O)c1ccc(Cl)cc1Cl
> 100 µM: 786-0 renal | A549 NSCLC | ACHN renal | BT-549 breast | CAKI-1 renal | CCRF-CEM leukemia | COLO 205 colon | DU-145 prostate | EKVX NSCLC | HCC-2998 colon | HCT-116 colon | HCT-15 colon | HL-60(TB) leukemia | HOP-62 NSCLC | HOP-92 NSCLC | HS 578T breast | HT29 colon | IGROV1 ovarian | K-562 leukemia | KM12 colon | LOX IMVI melanoma | M14 melanoma | MALME-3M melanoma | MDA-MB-231 breast | MDA-MB-435 | MDA-N | MOLT-4 leukemia | NCI-H226 lung | NCI-H23 lung | NCI-H460 lung | NCI-H522 lung | NCI/ADR-RES ovarian | OVCAR-3 ovarian | OVCAR-4 ovarian | OVCAR-5 ovarian | OVCAR-8 ovarian | PC-3 prostate | RPMI-8226 leukemia | RXF 393 renal | SF-268 CNS | SF-295 CNS | SF-539 CNS | SK-MEL-2 melanoma | SK-MEL-28 melanoma | SK-MEL-5 melanoma | SK-OV-3 ovarian | SN12C renal | SNB-19 CNS | SNB-75 CNS | SW-620 colon | T-47D breast | TK-10 renal | U251 CNS | UACC-257 melanoma | UACC-62 melanoma | UO-31 renal
